The text below walks through data of paper PMC6936348, “Reactivation of Epstein–Barr virus by a dual-responsive fluorescent EBNA1-targeting agent with Zn^2+-chelating function” (Proceedings of the National Academy of Sciences of the …, 2019).

For data set [1], the system named is EBNA1 monomer homodimerization. The settings on record: peptide P4; cited from earlier work. From the text: (§1) Epstein–Barr nuclear antigen 1 (EBNA1) is the only viral protein expressed in nearly all forms of EBV latency and its associated cancers which plays a vital role in the maintenance of viral genome ([3]). EBNA1 is also important for the transcriptional activation of some other EBV latency genes ([4]). Homodimerization of EBNA1 is known to be critical for EBNA1–DNA binding and the subsequent functions of oriP (latent origin of replication), including viral DNA replication and segregation, maintenance of the EBV episomal genome, and transcriptional activation ([5]). Thus, EBNA1 not only serves as ...

The next data set relates to EBV-infected cells. The settings on record: peptide P4; cited from earlier work.
Description: as §1

The nature of data set [2]: Fluorescence response toward Zn2+. The data set is classed as binding. The settings on record: 2 µM probe, excitation 337 nm.
The subject of data set [3] is infectious EBV particles from HONE-1-EBV cells. In words: EBV infection assay (Raji cell assay, virions from HONE-1-EBV). It counts as cell-based, Epstein–Barr virus. As to conditions: 10 µM, 4 d, triplicate, P = 0.009 (ZRL5P4), P = 0.06 (ZRL5P2).
In data set [4] the test system is Rta, BMRF1, gp350/220 in NPC43 cells. The data set is described as follows: Western blot of lytic proteins in NPC43. It counts as cell-based, Epstein–Barr virus. As to conditions: 10 µM, 7 d. The text has this: Fig. 5. EBV lytic induction analysis of EBV-positive tumors and cells in response to the EBNA1 probes. (A) IHC analysis of lytic proteins Zta, BMRF1, and VCA-p18 in the transplanted C666-1–derived tumor tissues as described in Fig. 4 E–G. Representative results are shown. […] Insets (in the red boxes) are the enlarged images to indicate the cellular localization of the 3 proteins. Negative control staining images are included for the mouse antibodies (mAb) against Zta and BMRF1 and for the rat antibody (rAb) against VCA-p18. Magnification, 400×. […] TPA/NaB (20 ng/mL TPA, 3 mM NaB) serves as a positive control of lytic induction. The presence of these 4 lytic proteins is indicated by red signals. The nuclei were stained with DAPI. […] Acetylated histone H3 (Ac-Histone H3) was also detected. β-actin serves as the loading control. […] The gene expression was analyzed by qRT-PCR. The fold change of relative gene expression after each treatment was compared with the solvent control (DMSO). Data are expressed as the means ± CI.
Western blot analysis of Zta, Rta, BMRF1, and gp350/220 was performed as reported ([41]). The Rta antibody was supplied from Argene (Verniolle) and the β-actin antibody for loading control was supplied from Cell Signaling Technology. Antibodies against Zta, BMRF1, gp350/220, Dicer1, and PML were the ones used for IF staining. A 1:400 dilution of the primary antibodies was used.
Background: A western blot detects proteins with antibodies after separation by electrophoresis.

The next data set has as its system C666-1 xenograft. The data set is described as follows: C666-1 xenograft, intratumoral injection. The settings on record: 4 µg per injection twice weekly, 18 d, n = 5.
The subject of data set [5] is EBV-positive C666-1 and NPC43 cells. In words: Two-photon imaging, subcellular localization in EBV-positive cells. As to conditions: 10 µM, 3 h, two-photon λex 700 nm. The data set is classed as cell-based.
The next data set deals with HeLa xenograft. As to conditions: 4 μg/injection every three days, 19 days, vs control.
In data set [6] the test system is EBV-positive NPC43, C666-1 and Raji cells. The data set is described as follows: MTT cytotoxicity, EBV-positive cell panel. It counts as cell-based. The settings on record: 1 to 20 µM, 5 d.
Data set [7] concerns the molecule itself. The data set is described as follows: self-association assay read by SDS-PAGE and anti-His Western blot.

Consider CAhxYFMVFGGRrRK [P4], for which the EBNA1 homodimerization entry in data set [1] is listed as “able to interfere with the homodimerization of the EBNA1 monomer”. In the data set with EBV-infected cells, the EBV-infected cell growth entry is “suppress EBV-infected cell growth”.

“YFMVF [ZRL5P2, rest of structure identical to ZRL5P4; negative control]”: the “Emission change upon addition of Zn2+” value in data set [2] (2 equiv. Zn2+, CH3CN/0.05 M Hepes pH 7.4, 50:50) was “slightly blue-shifted emission”. Moreover, in data set [2] (CH3CN/0.05 M Hepes pH 7.4, 50:50, absence of Zn2+), the “Maximum emission wavelength, without Zn2+” value was determined as 448 nm. Moreover, in data set [2] (CH3CN/0.05 M Hepes pH 7.4, 50:50, presence of Zn2+), the “Maximum emission wavelength, with Zn2+” value was found to be 445 nm. The “Virion production versus DMSO control” value in [3] is given as 2.6 fold. Also, the “Rta and BMRF1 expression” value in data set [4] was “much weaker than those of ZRL5P4”. Besides, the Tumor growth result with C666-1 xenograft is “did not significantly affect tumor growth”. For the same molecule, the Subcellular localization entry in [5] is given as “only found in the cytoplasm”. The Body weights result with HeLa xenograft is listed as “did not cause any significant changes in body weights”. In data set [6], the “Growth-inhibitory effect, comparison” value is “the least efficient one”.

B1: Full-length EBNA1 (residues 1 to 641) with an N-terminal His tag (ab138345; Abcam) (natural protein)
chain: MSDEGPGTGPGNGLGEKGDTSGPEGSGGSGPQRRGGDNHGRGRGRGRGRGGGRPGAPGGSGSGPRHRDGVRRPQKRPSCIGCKGTHGGTGAGAGAGGAGAGGAGAGGGAGAGGGAGGAGGAGGAGAGGGAGAGGGAGGAGGAGAGGGAGAGGGAGGAGAGGGAGGAGGAGAGGGAGAGGGAGGAGAGGGAGGAGGAGAGGGAGAGGAGGAGGAGAGGAGAGGGAGGAGGAGAGGAGAGGAGAGGAGAGGAGGAGAGGAGGAGAGGAGGAGAGGGAGGAGAGGGAGGAGAGGAGGAGAGGAGGAGAGGAGGAGAGGGAGAGGAGAGGGGRGRGGSGGRGRGGSGGRGRGGSGGRRGRGRERARGGSRERARGRGRGRGEKRPRSPSSQSSSSGSPPRRPPPGRRPFFHPVGEADYFEYHQEGGPDGEPDVPPGAIEQGPADDPGEGPSTGPRGQGDGGRRKKGGWFGKHRGQGGSNPKFENIAEGLRALLARSHVERTTDEGTWVAGVFVYGGSKTSLYNLRRGTALAIPQCRLTPLSRLPFGMAPGPGPQPGPLRESIVCYFMVFLQTHIFAEVLKDAIKDLVMTKPAPTCNIRVTVCSFDDGVDLPPWFPPMVEGAAAEGDDGDDGDEGGDGDEGEEGQE
notes: source: bought: Abcam (ab138345); not shown: His tag, N-terminal, kept
In general, stoichiometry N refers to the number of molecules, sites or subunits per partner or assembly. Take B1: the “stoichiometry N” value in data set [7] was 2.
